The supplement of paper PMC8149375
Several values for one entry are separate records, joined by “and”; a condition that tells them apart may be missing. Equal entries are not always repeated.

Assays:
Conditions in all cases: treatment: drug alone; 5 days
[1] = test system: UO-31; experiment: AUC of dose-response viability curve, drug alone (arbitrary (AUC of normalised viability)); higher = less growth inhibition
Description: (§1)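 Primary HTS: 8 RCC cell lines treated with 8 doses (up to 10 uM) of each library drug alone for 5 days; viability read by CellTiter-Glo and normalised to DMSO. GI50 was fitted with XLfit (4-parameter), AUC is the area under the dose-response curve, and minimum viability is the lowest fraction of DMSO viability across doses.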

[2] = test system: TK-10; experiment: as above
Description: as §1

[3] = test system: 786-O; experiment: as above
Description: as §1

[4] = test system: 769-P; experiment: as above
Description: as §1

[5] = test system: CAKI-1; experiment: as above
Description: as §1

[6] = test system: A498; experiment: as above
Description: as §1

[7] = test system: SN12C; experiment: as above
Description: as §1

[8] = test system: ACHN; experiment: as above
Description: as §1

[9] = test system: UO-31; experiment: minimum viability across doses, drug alone, relative to DMSO (fraction); higher = less growth inhibition
Description: as §1

[10] = test system: TK-10; experiment: as above
Description: as §1

[11] = test system: 786-O; experiment: as above
Description: as §1

[12] = test system: 769-P; experiment: as above
Description: as §1

[13] = test system: A498; experiment: as above
Description: as §1

[14] = test system: ACHN; experiment: as above
Description: as §1

[15] = test system: UO-31; experiment: GI50, drug alone; higher = less potent
Description: as §1

[16] = test system: TK-10; experiment: GI50, drug alone; higher = less potent
Description: as §1

[17] = test system: 786-O; experiment: GI50, drug alone; higher = less potent
Description: as §1

[18] = test system: 769-P; experiment: GI50, drug alone; higher = less potent
Description: as §1

[19] = test system: CAKI-1; experiment: GI50, drug alone; higher = less potent
Description: as §1

[20] = test system: A498; experiment: GI50, drug alone; higher = less potent
Description: as §1

[21] = test system: SN12C; experiment: GI50, drug alone; higher = less potent
Description: as §1

[22] = test system: ACHN; experiment: GI50, drug alone; higher = less potent
Description: as §1

[23] = test system: CAKI-1; experiment: minimum viability across doses, drug alone, relative to DMSO (fraction); higher = less growth inhibition
Description: as §1

[24] = test system: SN12C; experiment: as above
Description: as §1

SMILES	GI50, drug alone [17]	GI50, drug alone [22]	AUC of dose-response viability curve [1]	AUC of dose-response viability curve [2]	AUC of dose-response viability curve [3]	AUC of dose-response viability curve [4]	AUC of dose-response viability curve [5]	AUC of dose-response viability curve [6]	AUC of dose-response viability curve [7]	AUC of dose-response viability curve [8]	minimum viability across doses [9]	minimum viability across doses [10]	minimum viability across doses [11]	minimum viability across doses [12]	minimum viability across doses [13]	minimum viability across doses [14]	GI50, drug alone [15]	GI50, drug alone [16]	GI50, drug alone [18]	GI50, drug alone [19]	GI50, drug alone [20]	GI50, drug alone [21]	minimum viability across doses [23]	minimum viability across doses [24]
Cc1cnc(Nc2ccc(N3CCN(C)CC3)cc2)nc1Nc1cccc(S(=O)(=O)NC(C)(C)C)c1	1630 nM and 1100 nM	394 nM and 247 nM	3.84 and 3.52	2.15 and 1.95	2.78 and 2.6	2.9 and 2.62	2.2 and 2.24	3.84 and 4.19	2.78 and 2.61	2.1 and 1.82	0.0126 and 0.00902	0.00169 and 0.00288	0.011 and 0.00951	0.0716 and 0.0287	0.19 and 0.161	0.00241 and 0.0043	3060 nM and 2230 nM	596 nM and 364 nM	3640 nM and 1860 nM	523 nM and 494 nM	8980 nM and 9200 nM	2190 nM and 1470 nM	–	–
Cn1cc(-c2ccc3nnc(C(F)(F)c4ccc5ncccc5c4)n3n2)cn1	> 10000 nM	> 10000 nM	4.62	3.33	3.59	3.38	2.4	4.15	3.44	3.24	1.12	0.799	0.862	0.868	1.05	0.792	> 10000 nM	> 10000 nM	> 10000 nM	> 10000 nM	> 10000 nM	> 10000 nM	0.59	0.93
Cc1nc(N)sc1-c1ccnc(Nc2ccc(N3CCOCC3)cc2)n1 [CYC116]	727 nM	975 nM	3.6	2.31	1.88	2.86	2.23	3.68	2.72	2.45	0.00864	0.152	0.00272	0.137	0.287	0.107	8170 nM	1890 nM	2990 nM	693 nM	7870 nM	3210 nM	0.027	0.207
O=c1cc(-c2cccc3c2Sc2ccccc2S3)oc(N2CCOCC2)c1	> 10000 nM	70.5 nM	4	3.14	2.98	3.21	3.06	3.49	3.23	2.57	0.981	0.791	0.638	0.864	0.864	0.496	> 10000 nM	> 10000 nM	> 10000 nM	> 10000 nM	> 10000 nM	> 10000 nM	0.648	0.864

The next lines start with results.

GI50, drug alone [17]	GI50, drug alone [22]	SMILES	AUC of dose-response viability curve [1]	AUC of dose-response viability curve [2]	AUC of dose-response viability curve [3]	AUC of dose-response viability curve [4]	AUC of dose-response viability curve [5]	AUC of dose-response viability curve [6]	AUC of dose-response viability curve [7]	AUC of dose-response viability curve [8]	minimum viability across doses [9]	minimum viability across doses [10]	minimum viability across doses [11]	minimum viability across doses [12]	minimum viability across doses [13]	minimum viability across doses [14]	GI50, drug alone [15]	GI50, drug alone [16]	GI50, drug alone [18]	GI50, drug alone [19]	GI50, drug alone [20]	GI50, drug alone [21]	minimum viability across doses [23]	minimum viability across doses [24]
9400 nM	7460 nM	Cc1ccc(F)c(NC(=O)Nc2ccc(-c3cccc4[nH]nc(N)c34)cc2)c1 [Linifanib (ABT-869)]	4.69	2.99	3.03	3.21	3.49	3.32	3.28	3.34	1.08	0.309	0.472	0.503	0.672	0.279	> 10000 nM	5720 nM	> 10000 nM	9960 nM	> 10000 nM	6980 nM	0.497	0.242
1450 nM	496 nM	C=CC(=O)Nc1cccc(Oc2nc(Nc3ccc(N4CCN(C)CC4)cc3)ncc2Cl)c1 [WZ3146]	3.76	2.07	2.27	2.71	2.62	3.49	2.85	2.34	0.0177	0.0399	0.046	0.146	0.452	0.0569	2600 nM	504 nM	1900 nM	958 nM	9890 nM	2340 nM	0.0135	0.0769
8.88 nM	> 10000 nM	Nc1cccc2c1C(=O)N(C1CCC(=O)NC1=O)C2=O (centres undefined) [Pomalidomide]	3.85	3.12	2	3.35	3.49	3.01	3.38	3.14	1.01	0.818	0.424	0.887	0.732	0.85	> 10000 nM	> 10000 nM	> 10000 nM	> 10000 nM	> 10000 nM	> 10000 nM	0.924	0.884
941 nM	1980 nM	N#CCNC(=O)c1ccc(-c2ccnc(Nc3ccc(N4CCOCC4)cc3)n2)cc1 [Cyt387]	3.36	2.6	2.19	3.08	2.51	4.74	3.06	2.82	0.0114	0.152	0.00487	0.29	0.868	0.0637	4280 nM	2700 nM	6390 nM	1420 nM	> 10000 nM	8320 nM	0.0592	0.434
355 nM	286 nM	Oc1cccc(-c2nc(N3CCOCC3)c3oc4ncccc4c3n2)c1 [PI-103]	1.8	2.15	2	2.53	2.37	2.26	1.91	2.08	0.0085	0.136	0.00638	0.0599	0.0881	0.119	339 nM	527 nM	1360 nM	858 nM	584 nM	360 nM	0.0544	0.118
